Test results: ChEMBL document CHEMBL1201862, “PubChem BioAssay data set” (2004)
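Values below derive from 48-hour exposures of cells grown in 96-well plates, with endpoints linearly interpolated between the two concentrations bracketing the appropriate inhibition level. GI50 = concentration required for 50% inhibition of growth.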 Activity calls are given as the source filed them. No stated cut-off is given here; in the data, active = GI50 up to about 1.1 µM and inactive = higher.

Columns and labels:
Test in all cases: NCI tumour cell line growth inhibition, 48 h
[1] = test system: SW-620
[2] = test system: SNB-75
[3] = test system: HCT-116
[4] = test system: OVCAR-3
[5] = test system: OVCAR-8
[6] = test system: SK-MEL-5
[7] = test system: CCRF-CEM
[8] = test system: PC-3
[9] = test system: IGROV-1
[10] = test system: RXF 393
[11] = test system: 786-0
[12] = test system: SNB-19
[13] = test system: DU-145
[14] = test system: MCF7
[15] = test system: NCI-H23
[16] = test system: K562
[17] = test system: CAKI-1
[18] = test system: SK-MEL-28
[19] = test system: ACHN
[20] = test system: MDA-N

Measured: GI50

COc1ccc(C2c3c(-c4ccccc4)nn(-c4ccccc4)c3Oc3ncn(N)c(=N)c32)cc1OC (stereo unspecified)
inactive: [1] 2.9 µM | [2] 1.62 µM | [3] 1.67 µM | [4] 1.63 µM | [5] 2.1 µM | [6] 1.94 µM | [7] 2.56 µM | [8] 1.95 µM | [9] 1.51 µM | [10] 1.84 µM | [11] 1.67 µM | [12] 2.83 µM | [13] 2.89 µM | [14] 1.84 µM | [15] 2.54 µM | [16] 3.82 µM | [17] 1.86 µM | [18] 2 µM | [19] 1.86 µM

CN(CCCNC(=O)c1nn(C)c2c1Cc1ccccc1-2)CCCNC(=O)c1nn(C)c2c1Cc1ccccc1-2
inactive: [1] 10.1 µM | [2] 15.2 µM | [3] 14.3 µM | [4] 16.1 µM | [5] 19.6 µM | [6] 13.5 µM | [7] 2.18 µM | [8] 16.2 µM | [9] 15.3 µM | [10] 13.9 µM | [11] 10.7 µM | [12] 9.53 µM | [13] 16.9 µM | [14] 15 µM | [15] 21.9 µM | [16] 7.94 µM | [17] 18.7 µM | [18] 20.1 µM | [19] 16.7 µM

C(=C\c1cc[n+](CCc2ccccc2)cc1)/c1ccccc1
inactive: [1] 12.1 µM | [2] 24 µM | [3] 11.3 µM | [4] 5.26 µM | [5] 3.86 µM | [6] 1.28 µM | [7] 13.4 µM | [8] 15.2 µM | [9] 31.7 µM | [10] 88.7 µM | [11] 21.8 µM | [12] 12.7 µM | [13] 27 µM | [14] 9.16 µM | [15] 12.5 µM | [16] 16.8 µM | [17] 22.4 µM | [18] 10.6 µM | [19] 26.9 µM

COc1ccc(/C=N/n2c(Cc3ccccc3)n[nH]c2=O)cc1
inactive: [1] > 100 µM | [2] > 100 µM | [3] > 100 µM | [4] > 100 µM | [5] > 100 µM | [7] > 100 µM | [8] > 100 µM | [11] > 100 µM | [12] 70.6 µM | [13] > 100 µM | [14] > 100 µM | [15] 94.8 µM | [16] > 100 µM | [17] > 100 µM | [18] > 100 µM | [20] > 100 µM | [19] > 100 µM

CN1CC[C@]23c4c5ccc(O)c4OC2c2[nH]ncc2C[C@H]3[C@H]1C5 (stereo partly specified)
inactive: [2] 94.6 µM | [3] > 100 µM | [4] > 100 µM | [5] > 100 µM | [6] > 100 µM | [7] > 100 µM | [8] > 100 µM | [9] > 100 µM | [10] > 100 µM | [11] > 100 µM | [12] > 100 µM | [13] > 100 µM | [14] > 100 µM | [15] > 100 µM | [16] > 100 µM | [17] > 100 µM | [18] > 100 µM | [19] > 100 µM

NC(=O)C1CCN(Cc2c(Cl)c(Cl)c(CN3CCC(C(N)=O)CC3)c(Cl)c2Cl)CC1
inactive: [1] > 100 µM | [2] 24.3 µM | [3] > 100 µM | [4] > 100 µM | [5] > 100 µM | [6] > 100 µM | [7] > 100 µM | [8] > 100 µM | [10] 52.6 µM | [11] 77.1 µM | [12] 43.9 µM | [13] > 100 µM | [14] > 100 µM | [15] > 100 µM | [16] > 100 µM | [17] > 100 µM | [18] > 100 µM | [19] > 100 µM

NC(=S)N/N=C1\C(=O)Nc2c(Cl)cc(Cl)cc21
inactive: [1] 30.5 µM | [2] 19 µM | [3] 17.9 µM | [4] 11.7 µM | [5] 18.1 µM | [6] 14.4 µM | [7] 23.5 µM | [8] 17.8 µM | [9] 22.5 µM | [10] 16 µM | [11] 22.9 µM | [12] 31.3 µM | [14] 28 µM | [15] 37.6 µM | [16] 29.6 µM | [17] 41.2 µM | [18] 15 µM | [20] 17.4 µM | [19] 37.4 µM

Nc1c(Cl)ncnc1NCC1(CO)CCC1
inactive: [1] > 100 µM | [2] > 100 µM | [3] > 100 µM | [4] > 100 µM | [5] > 100 µM | [6] 79.4 µM | [7] > 100 µM | [8] > 100 µM | [9] > 100 µM | [11] > 100 µM | [13] > 100 µM | [14] > 100 µM | [15] > 100 µM | [16] > 100 µM | [18] > 100 µM | [20] > 100 µM | [19] > 100 µM

N#CCCN(CCN(C(=O)Nc1ccccc1)c1ccccc1)C(=O)Nc1ccccc1
inactive: [1] > 100 µM | [2] > 100 µM | [3] 54.6 µM | [4] > 100 µM | [5] 64.3 µM | [6] 60.7 µM | [7] 17.7 µM | [8] 43.3 µM | [9] 76.7 µM | [10] > 45.3 µM | [11] > 100 µM | [12] > 57.3 µM | [14] > 71.1 µM | [15] > 60.1 µM | [16] 29.9 µM | [17] > 43 µM | [18] > 91.6 µM | [19] 52.1 µM

CCOC(=O)CCC(NC(=O)Cc1ccc(Oc2nc3ccccc3nc2-c2cccs2)cc1)C(=O)OCC (stereo unspecified)
inactive: [1] > 100 µM | [3] 6.15 µM | [4] 4.07 µM | [5] 1.82 µM | [6] > 100 µM | [7] > 100 µM | [8] 80.2 µM | [9] 47.5 µM | [10] 2.3 µM | [11] 2.49 µM | [12] 9.29 µM | [13] 7.45 µM | [14] > 100 µM | [15] 61.9 µM | [16] > 100 µM | [17] 39.3 µM | [18] > 100 µM | [19] 2.44 µM

Cc1ccc(-c2n[nH]c(=O)n2N2C(=O)C=CC2=O)cc1
inactive: [3] > 100 µM | [4] > 100 µM | [5] > 100 µM | [6] > 100 µM | [7] > 100 µM | [8] > 100 µM | [9] > 100 µM | [10] > 100 µM | [11] > 100 µM | [13] > 100 µM | [14] > 100 µM | [15] > 100 µM | [16] > 100 µM | [17] > 100 µM
